Experimental data: patent publication US12612375B2, “Antimicrobial and anticancer agents” (Persevere Therapeutics Inc., priority 2021, dated 2026)

Experiments:
tumor stem cells = experiment: Killing tumor stem cells in tissue culture in vitro; assay type: cell-based
Procedure: In some embodiments, the taurolidine, taurultam, or a mixture thereof is administered in a tumor stem cell killing composition at a concentration of about 0.01 to about 500 μg/ml. In some embodiments, the taurolidine, taurultam, or a mixture thereof is administered in a tumor stem cell killing composition at a concentration of about 0.1 to about 100 μg/ml. In some embodiments, the taurolidine, taurultam, or a mixture thereof is administered in a tumor stem cell killing effective composition at a concentration of about 10 to about 50 μg/ml. Taurolidine is effective at killing tumor stem cells in tissue culture in vitro at 0.01 μg/ml.

[1] = previously reported; cited from earlier work
Escherichia coli = experiment: Agar diffusion test Escherichia coli; assay type: cell-based; conditions: for Inhibition Zone: Escherichia coli (ATCC 8739), gram-negative
Excerpt: (§1) Different gram-negative and gram-positive bacteria are used for testing the compounds of the present disclosure: Staphylococcus aureus and Escherichia coli (ATCC-LGC Standards GmbH, Wesel, Germany); Enterococcus faecilis, Enterococcus faecilum, Staphylococcus aureus, Clostridium difficile, Acineobacter baumannii, Pseudomonas aeruginosa, Stenotrophomonas maltophilia, Citrobacter freundii, Escherichia coli, Klebsiella pneomoniae, Morganelle morganii, Bactroides fragilis, Helicobacter pylori (fresh clinical isolates). All isolates are cultured with Müller-Hinton-Agar excluding Bacteroides fragilis and Helcobacter pylori. Bacteroides fragilis is cultured with Müller-Hinton-Agar containing 5% Horseblood and 20 mg/l ß-NAD. Helicobacter pylori is cultured with Chocolat PolyViteX-Agar.
(§2) The antibacterial potential of compounds is examined by the Kirby-Bauer disc diffusion test using Müller-Hington agar. A 10 mm diameter disk soaked in 150 μl of distilled water containing 10 mg of the test substance was placed on Müller-Hington agar (bioMeieux, Geneve, Switzerland) holding a pre-lawn of the according test bacteria. The plates are incubated at 37° C. for 24 hours and the zone of inhibition is recorded. Culture media and sterilized distilled water were used as a control. N-acetylcysteine (NAC) is used as an anti-oxidant control.

[2] = test system: Staphylococcus aureus (MRSA); experiment: Agar diffusion test Staphylococcus aureus (MRSA); assay type: cell-based; conditions: for Inhibition Zone: Staphylococcus aureus (MRSA Nr. 2065), gram-positive
Excerpt: as §1, §2

Enterococcus faecium = experiment: Agar diffusion test Enterococcus faecium; assay type: cell-based; conditions: 10 mm disk with 10 mg test substance, 37° C., 24 hours
Excerpt: as §1, §2

MDA MB 468 cells = experiment: Cell migration assay (scratch of confluent monolayer); assay type: cell-based, human; conditions: 2 to 5 days, compared to untreated control, semi-quantified (FIG. 1)
Procedure: Cells are plated into the 60-mm dishes to create a confluent monolayer and are incubated for 24 hours allowing cells to adhere and spread. The required number of cells for a confluent monolayer depends on the particular cell type. After creating a scratch of the cell monolayer, the gaparea is examined by phase-contrast-microscopy. Images are captured at the beginning and at regular intervals during cell migration (48, 72, and 120 hours (5 d)) closing the scratch, to semi-quantify the migration rate of the cells.
Cell migration assay: cell migration of compounds 2289, 2244, 2287, 2255, 2256 compared to non-treated control (NK) and positive control (compound 2250). Comparative compounds 2244, 2287, 2255, 2256 have the following structures:
Using cell migration assays, the migration rate of different cancer cell entities under treatment with 2289, negative control and positive control (2250) was semi-quantified.

[3] = test system: MDA MB 468, HT29, MCC 14.2, Panc TuI; experiment: MTT assay for cell viability, all tested cancer cell lines (Example 2); assay type: cell-based, human; conditions: FIG. 2
Procedure: (§3) Cells are seeded individually to obtain a sub confluent monolayer in a 96 well plate format and are incubated for 24 hours prior treatment. To examine a dose response regarding the antineoplastic activity cells are incubated with increasing concentrations (100, 200, 500, 1000, 1500, 2000 μmol/l) of all different Oxathiazinane derivatives and ddH2O as control for 24 and 48 hours. After the exposition time 10 μl MTT (3-(4,5-Dimethylthiazol-2-yl)-2,5-diphenyltetrazoliumbromid) reagent (5 mg/ml) is added and incubated for 2 hours before violet Formazan crystals are dissolved in 100 μl DMSO (Dimethylsulfoxide). Viability of the cells can be analyzed by using a microplate absorbance reader by measuring the OD560 (ASYS, UVM340, Anthos Mikrosystheme GmbH, Germany). The assay is performed using 8 replicates in three independent experiments with consecutive passages.
(§4) Anti-neoplastic activity of compounds 2289, 2293, and 2296 was determined according to the MTT assay and BrdU assay described above.

[4] = test system: all tested cancer cell lines (MDA MB 468 highest, MCC 14.2 lowest response); experiment: BrdU assay for cell proliferation, all tested cancer cell lines (Example 2); assay type: cell-based, human; conditions: FIG. 3
Procedure: Cells are seeded individually to obtain a sub confluent monolayer in a 96 well plate format and are incubated for 24 hours prior to treatment. To examine the dose response regarding their anti-proliferative activity, cells are incubated with increasing concentrations (100, 200, 500, 1000, 1500 and 2000 μmol/l) of all different Oxathiazinane derivates and ddH2O as control for 6 h prior BrdU proliferation assay (5-bromo-2-deoxyuridine)-ELISA (Roche Applied Science, Mannheim, Germany) according to the manufacturer's instructions. […] The amount of synthesized DNA is detected using a microplate absorbance reader measuring at 370 nm with a reference wavelength of 492 nm (ASYS, UVM340, Anthos Mikrosysteme GmbH, Krefeld, Germany). BrdU assays are performed with 8 replicates of three independent experiments with consecutive passages.
as §4

[5] = test system: Staphylococcus aureus (ATCC 6538); experiment: Agar diffusion test Staphylococcus aureus (ATCC 6538); assay type: cell-based; conditions: gram-positive
Excerpt: as §1, §2

[6] = Human fresh blood stability / half-life at 37° C. in vitro; assay type: in vitro ADME; conditions: for human blood stability profile compared to 2250: K2-EDTA human blood; for half-life compared to the half-life of taurolidine / half-life at 256 μM: human; for half-life at 256 μM: blood
Procedure: The half-life of each of compounds 2289, 2293, and 2296 in human fresh blood was measured at 37° C. in vitro. For 2289 and 2293 into 2250, K2-EDTA human blood was spiked with 2289 or 2293 at 256 μM; 2250 at 26 μM and 2244 at 26 μM (n=1). The pool remained at 37° C. for 20-25 min and then an aliquot was centrifuged (2500 g for at least 5 minutes at 4° C.). After centrifugation the human plasma was collected and immediately frozen at −80° C. This aliquot corresponded to the T0. The remaining pool was aliquoted and kept at 37° C. An aliquot was collected, centrifuged (2500 g for at least 5 minutes at 4° C.) and the recovered plasma was frozen at −80° C. after at least 0.25, 0.5, 1, 6, 8, 24 and 48 hours. Stability was determined by measuring the 2289 and 2293 peak area at each time point compared to T0. For 2296 into its metabolite 1-hydoxypropane-2-sulfonamide, K2-EDTA human blood was spiked with 2296 at 256 μM and 1-hydroxypropane-2-sulfonamide at 26 μM (n=1). The pool remained at 37° C. for 20-25 min and then an aliquot was centrifuged (2500 g for at least 5 minutes at 4° C.). After centrifugation the human plasma was collected and immediately frozen at −80° C. This aliquot corresponded to the TO. The remaining pool was aliquoted and kept at 37° C. An aliquot was collected, centrifuged (2500 g for at least 5 minutes at 4° C.) and the recovered plasma frozen at −80° C. after at least 0.5, 1, 3, 6, 8 and 24 hours/ Stability was determined by measuring 2296 peak area at each time point compared to T0.

Solubility in water = assay type: physicochemical; conditions: at room temperature
Procedure: Re-crystallization with, e.g., • Ethanol • Ethyl acetate • Ethyl acetate/light petroleum Physical Properties • Melting range: 79-83° C. • Solubility in water: about 1.5% at room temperature • Melting range: 52-53° C. • Solubility in water: <1.5% at room temperature • Melting range: 74-75° C. • Solubility in water: min. 1% at room temperature

AsPc1 cells = experiment: MTT cytotoxicity assay AsPc1; assay type: cell-based; conditions: AsPc1, after 24 h, compared to untreated control (NC), t-test
Procedure: as §3
A MTT Cytotoxicity assay of the cell line AsPc1 with different oxathiazine derivatives was performed.

[7] = Human fresh blood stability / half-life at 37° C. in vitro; assay type: in vitro ADME; conditions: 2296 into 1-hydroxypropane-2-sulfonamide, human blood 37° C., 256 μM, Time 48 h
Enterococcus faecalis = experiment: Agar diffusion test Enterococcus faecalis; assay type: cell-based; conditions: 10 mm disk with 10 mg test substance, 37° C., 24 hours
Excerpt: as §1, §2

[8] = Escherichia coli, 10 mm disk with 10 mg test substance, 37° C., 24 hours
[9] = Staphylococcus aureus (MRSA), 10 mm disk with 10 mg test substance, 37° C., 24 hours
[10] = 2289 or 2293 spiked at 256 μM into K2-EDTA human blood, 37° C., Time 0 h (T0, after 20-25 min at 37° C.)

O=S1(=O)CCN(CN2CCS(=O)(=O)NC2)CN1 [taurolidine]
concentration effective at killing tumor stem cells (tumor stem cells): 0.01 µg/mL | half-life [1]: about 30 minutes

CC1NS(=O)(=O)CCO1 (centres unmarked) [Compound 2256]
zone of inhibition at 10000 µg/disc (Escherichia coli; [8]): < 10 mm | zone of inhibition at 10000 µg/disc [2, 9]: < 10 mm

CN1COCCS1(=O)=O [Compound 2255]
zone of inhibition at 10000 µg/disc (Escherichia coli; [8]): < 10 mm | zone of inhibition at 10000 µg/disc [2, 9]: < 10 mm

CC1OCCS(=O)(=O)N1C (centres unmarked) [Compound 2287]
zone of inhibition at 10000 µg/disc (Escherichia coli; [8]): < 10 mm | zone of inhibition at 10000 µg/disc [2, 9]: < 10 mm

NS(=O)(=O)CCO [Compound 2244]
zone of inhibition at 10000 µg/disc (Escherichia coli; [8]): < 10 mm | zone of inhibition at 10000 µg/disc (Enterococcus faecium): < 10 mm

CC(=O)N1COCCS1(=O)=O [Compound 2289]
migration rate (MDA MB 468 cells): lower migration rate | reduction of living cells (cell viability, MTT) [3]: significant reduction of living cells | reduction of proliferating cells (BrdU) [4]: significant reduction of proliferating cells | Inhibition Zone (Escherichia coli): 18.5 mm | zone of inhibition at 10000 µg/disc (Escherichia coli; [8]): 18.5 mm | zone of inhibition at 10000 µg/disc [2, 9]: 27.5 mm | Inhibition Zone [5]: 27.5 mm | % Stability [6, 10]: Not stable- | human blood stability profile compared to 2250 ([6]; 37° C.): very similar profile | half-life compared to the half-life of taurolidine [6]: significantly higher | half-life at 256 μM [6]: 5 to 6 h | Solubility in water (Solubility in water): about 1.5%

CCC(=O)N1COCCS1(=O)=O [Compound 2293]
concentration from which a significant impact on cell viability is shown (AsPc1 cells): ≥ 500 µM | Inhibition Zone (Escherichia coli): 19.5 mm | Inhibition Zone [2]: 32.5 mm | Inhibition Zone [5]: 31.5 mm | % Stability [6, 10]: Not stable- | human blood stability profile compared to 2250 ([6]; 37° C.): very similar profile | half-life compared to the half-life of taurolidine [6]: significantly higher | half-life at 256 μM [6]: 5 to 6 h | Solubility in water (Solubility in water): < 1.5%

CC1COCNS1(=O)=O (centres unmarked) [Compound 2296]
Inhibition Zone (Escherichia coli): 23.0 mm | Inhibition Zone [2]: 43.0 mm | Inhibition Zone [5]: 38.0 mm | % Stability ([6]; 2296 into 1-hydroxypropane-2-sulfonamide, human blood 37° C., 256 μM, Time 0 h): 100% | % Stability ([6]; 2296 into 1-hydroxypropane-2-sulfonamide, human blood 37° C., 256 μM, Time 0.5 h): 97% | % Stability ([6]; 2296 into 1-hydroxypropane-2-sulfonamide, human blood 37° C., 256 μM, Time 1 h): 92% | % Stability ([6]; 2296 into 1-hydroxypropane-2-sulfonamide, human blood 37° C., 256 μM, Time 3 h): 71% | % Stability ([6]; 2296 into 1-hydroxypropane-2-sulfonamide, human blood 37° C., 256 μM, Time 6 h): 52% | % Stability ([6]; 2296 into 1-hydroxypropane-2-sulfonamide, human blood 37° C., 256 μM, Time 8 h): 42% | % Stability ([6]; 2296 into 1-hydroxypropane-2-sulfonamide, human blood 37° C., 256 μM, Time 24 h): 7% | human blood stability profile compared to 2250 ([6]; 37° C.): very similar profile | half-life compared to the half-life of taurolidine [6]: significantly higher | half-life at 256 μM [6]: 5 to 6 h | Solubility in water (Solubility in water): ≥ 1% | % Stability [7]: 1%

O=S1(=O)CCOCN1 [Compound 2250]
migration rate (MDA MB 468 cells): clearly inhibited | reduction of living cells (cell viability, MTT) [3]: significant reduction of living cells | reduction of proliferating cells (BrdU) [4]: significant reduction of proliferating cells | Zone of inhibition (Escherichia coli; [8]): 24.5 mm | Zone of inhibition [2, 9]: 49.5 mm | Zone of inhibition (Enterococcus faecalis): 42.5 mm) | half-life compared to taurolidine [1]: significantly longer half-life
